From the NIST ThermoML archive (doi:10.1021/je4001894)
± gives the expanded uncertainty stated by the source.

Assay: activity coefficient (dimensionless); of the first substance listed, at infinite dilution; xn = mol fraction of the nth substance listed
Conditions: 101 kPa, Liquid, Chromatography, x1 = 0

Row | SMILES | activity coefficient (323.15 K) | activity coefficient (333.15 K) | activity coefficient (343.15 K)
1 | C=CCCCC [hex-1-ene] + CCC[N+]1(C)CCCC1.O=S(=O)([N-]S(=O)(=O)C(F)(F)F)C(F)(F)F | 7.96 ± 0.54 | 7.75 ± 0.53 | 7.65 ± 0.52
2 | CCCCCC [hexane] + CCCC[N+]1(C)CCCC1.O=S(=O)([N-]S(=O)(=O)C(F)(F)F)C(F)(F)F | 13.9 ± 0.95 | 13.6 ± 0.93 | 12.6 ± 0.86
3 | CCCCCC [hexane] + CCC[N+]1(C)CCCC1.O=S(=O)([N-]S(=O)(=O)C(F)(F)F)C(F)(F)F | 16.5 ± 1.1 | 15 ± 1 | 14.1 ± 0.96
4 | CO [methanol] + CCCC[N+]1(C)CCCC1.O=S(=O)([N-]S(=O)(=O)C(F)(F)F)C(F)(F)F | 1.4 ± 0.09 | 1.28 ± 0.08 | 1.18 ± 0.08
5 | CO [methanol] + CCC[N+]1(C)CCCC1.O=S(=O)([N-]S(=O)(=O)C(F)(F)F)C(F)(F)F | 1.38 ± 0.09 | 1.28 ± 0.08 | 1.15 ± 0.07
6 | CC1CCCCC1 [methylcyclohexane] + CCCC[N+]1(C)CCCC1.O=S(=O)([N-]S(=O)(=O)C(F)(F)F)C(F)(F)F | 11.5 ± 0.79 | 10.7 ± 0.73 | 10.1 ± 0.69
7 | CC1CCCCC1 [methylcyclohexane] + CCC[N+]1(C)CCCC1.O=S(=O)([N-]S(=O)(=O)C(F)(F)F)C(F)(F)F | 14.1 ± 0.96 | 12.8 ± 0.87 | 12.2 ± 0.83
8 | CC1CCCC1 [methylcyclopentane] + CCCC[N+]1(C)CCCC1.O=S(=O)([N-]S(=O)(=O)C(F)(F)F)C(F)(F)F | 8.68 ± 0.59 | 8.24 ± 0.56 | 7.85 ± 0.54
9 | CC1CCCC1 [methylcyclopentane] + CCC[N+]1(C)CCCC1.O=S(=O)([N-]S(=O)(=O)C(F)(F)F)C(F)(F)F | 10.3 ± 0.7 | 10.3 ± 0.7 | 9.16 ± 0.63
10 | C[N+](=O)[O-] [nitromethane] + CCCC[N+]1(C)CCCC1.O=S(=O)([N-]S(=O)(=O)C(F)(F)F)C(F)(F)F | 0.65 ± 0.04 | 0.58 ± 0.04 | 0.57 ± 0.04
11 | CCCCCCCCC [nonane] + CCCC[N+]1(C)CCCC1.O=S(=O)([N-]S(=O)(=O)C(F)(F)F)C(F)(F)F | 42.7 ± 2.9 | 38.3 ± 2.6 | 34.7 ± 2.4
12 | CCCCCCCCC [nonane] + CCC[N+]1(C)CCCC1.O=S(=O)([N-]S(=O)(=O)C(F)(F)F)C(F)(F)F | 55.5 ± 3.8 | 48.7 ± 3.3 | 47.5 ± 3.2
13 | CCCCCCCC [octane] + CCCC[N+]1(C)CCCC1.O=S(=O)([N-]S(=O)(=O)C(F)(F)F)C(F)(F)F | 28.2 ± 1.9 | 25.3 ± 1.7 | 23.5 ± 1.6
14 | CCCCCCCC [octane] + CCC[N+]1(C)CCCC1.O=S(=O)([N-]S(=O)(=O)C(F)(F)F)C(F)(F)F | 35.8 ± 2.5 | 31.1 ± 2.1 | 30.6 ± 2.1
15 | CCCC(C)=O [pentan-2-one] + CCCC[N+]1(C)CCCC1.O=S(=O)([N-]S(=O)(=O)C(F)(F)F)C(F)(F)F | 0.8 ± 0.05 | 0.81 ± 0.05 | 0.82 ± 0.05
16 | CCCC(C)=O [pentan-2-one] + CCC[N+]1(C)CCCC1.O=S(=O)([N-]S(=O)(=O)C(F)(F)F)C(F)(F)F | 0.88 ± 0.06 | 0.88 ± 0.06 | 0.91 ± 0.06
17 | CCC(=O)CC [pentan-3-one] + CCCC[N+]1(C)CCCC1.O=S(=O)([N-]S(=O)(=O)C(F)(F)F)C(F)(F)F | 0.73 ± 0.05 | 0.75 ± 0.05 | 0.77 ± 0.05

Row | SMILES | activity coefficient (323.15 K) | activity coefficient (333.15 K) | activity coefficient (343.15 K)
18 | CCC(=O)CC [pentan-3-one] + CCC[N+]1(C)CCCC1.O=S(=O)([N-]S(=O)(=O)C(F)(F)F)C(F)(F)F | 0.84 ± 0.05 | 0.82 ± 0.05 | 0.86 ± 0.06
19 | CCCO [propan-1-ol] + CCCC[N+]1(C)CCCC1.O=S(=O)([N-]S(=O)(=O)C(F)(F)F)C(F)(F)F | 2.07 ± 0.14 | 1.87 ± 0.13 | 1.68 ± 0.11
20 | CCCO [propan-1-ol] + CCC[N+]1(C)CCCC1.O=S(=O)([N-]S(=O)(=O)C(F)(F)F)C(F)(F)F | 2.17 ± 0.15 | 1.95 ± 0.13 | 1.79 ± 0.12
21 | CC(C)O [propan-2-ol] + CCCC[N+]1(C)CCCC1.O=S(=O)([N-]S(=O)(=O)C(F)(F)F)C(F)(F)F | 1.9 ± 0.13 | 1.72 ± 0.12 | 1.57 ± 0.1
22 | CC(C)O [propan-2-ol] + CCC[N+]1(C)CCCC1.O=S(=O)([N-]S(=O)(=O)C(F)(F)F)C(F)(F)F | 1.92 ± 0.13 | 1.79 ± 0.12 | 1.62 ± 0.11
23 | c1ccncc1 [pyridine] + CCCC[N+]1(C)CCCC1.O=S(=O)([N-]S(=O)(=O)C(F)(F)F)C(F)(F)F | 0.59 ± 0.04 | 0.59 ± 0.04 | 0.59 ± 0.04
24 | c1ccncc1 [pyridine] + CCC[N+]1(C)CCCC1.O=S(=O)([N-]S(=O)(=O)C(F)(F)F)C(F)(F)F | 0.63 ± 0.04 | 0.63 ± 0.04 | 0.64 ± 0.04
25 | ClC(Cl)(Cl)Cl [tetrachloromethane] + CCCC[N+]1(C)CCCC1.O=S(=O)([N-]S(=O)(=O)C(F)(F)F)C(F)(F)F | 2.44 ± 0.17 | 2.45 ± 0.17 | 2.47 ± 0.17
26 | ClC(Cl)(Cl)Cl [tetrachloromethane] + CCC[N+]1(C)CCCC1.O=S(=O)([N-]S(=O)(=O)C(F)(F)F)C(F)(F)F | 2.55 ± 0.17 | 2.62 ± 0.18 | 2.64 ± 0.18
27 | c1ccsc1 [thiophene] + CCCC[N+]1(C)CCCC1.O=S(=O)([N-]S(=O)(=O)C(F)(F)F)C(F)(F)F | 0.82 ± 0.05 | 0.83 ± 0.05 | 0.84 ± 0.05
28 | c1ccsc1 [thiophene] + CCC[N+]1(C)CCCC1.O=S(=O)([N-]S(=O)(=O)C(F)(F)F)C(F)(F)F | 0.86 ± 0.06 | 0.88 ± 0.06 | 0.89 ± 0.06
29 | Cc1ccccc1 [toluene] + CCCC[N+]1(C)CCCC1.O=S(=O)([N-]S(=O)(=O)C(F)(F)F)C(F)(F)F | 1.25 ± 0.08 | 1.27 ± 0.08 | 1.29 ± 0.08
30 | Cc1ccccc1 [toluene] + CCC[N+]1(C)CCCC1.O=S(=O)([N-]S(=O)(=O)C(F)(F)F)C(F)(F)F | 1.37 ± 0.09 | 1.38 ± 0.09 | 1.45 ± 0.1
31 | ClC(Cl)Cl [trichloromethane] + CCCC[N+]1(C)CCCC1.O=S(=O)([N-]S(=O)(=O)C(F)(F)F)C(F)(F)F | 0.83 ± 0.05 | 0.86 ± 0.06 | 0.88 ± 0.06
32 | ClC(Cl)Cl [trichloromethane] + CCC[N+]1(C)CCCC1.O=S(=O)([N-]S(=O)(=O)C(F)(F)F)C(F)(F)F | 0.85 ± 0.05 | 0.91 ± 0.06 | 0.96 ± 0.06
33 | CCN(CC)CC [triethylamine] + CCCC[N+]1(C)CCCC1.O=S(=O)([N-]S(=O)(=O)C(F)(F)F)C(F)(F)F | 7.07 ± 0.48 | 7.07 ± 0.48 | 7.09 ± 0.48
34 | CCN(CC)CC [triethylamine] + CCC[N+]1(C)CCCC1.O=S(=O)([N-]S(=O)(=O)C(F)(F)F)C(F)(F)F | 8.98 ± 0.61 | 8.1 ± 0.55 | 7.19 ± 0.49
